Columns and labels:
[1] = molecular target: T1, Mer (Homo sapiens, UniProt Q12866); assay: Mer autophosphorylation ELISA in transient transfected 293A cells; type: cell-based; conditions: Table 3 Cellular Activities; MERTK-transfected 293A cells, phospho-Mer ELISA
T1 construct: host or cells: 293A cells (Thermo Fisher #R70507)
T1 sequence (Q12866 21-999): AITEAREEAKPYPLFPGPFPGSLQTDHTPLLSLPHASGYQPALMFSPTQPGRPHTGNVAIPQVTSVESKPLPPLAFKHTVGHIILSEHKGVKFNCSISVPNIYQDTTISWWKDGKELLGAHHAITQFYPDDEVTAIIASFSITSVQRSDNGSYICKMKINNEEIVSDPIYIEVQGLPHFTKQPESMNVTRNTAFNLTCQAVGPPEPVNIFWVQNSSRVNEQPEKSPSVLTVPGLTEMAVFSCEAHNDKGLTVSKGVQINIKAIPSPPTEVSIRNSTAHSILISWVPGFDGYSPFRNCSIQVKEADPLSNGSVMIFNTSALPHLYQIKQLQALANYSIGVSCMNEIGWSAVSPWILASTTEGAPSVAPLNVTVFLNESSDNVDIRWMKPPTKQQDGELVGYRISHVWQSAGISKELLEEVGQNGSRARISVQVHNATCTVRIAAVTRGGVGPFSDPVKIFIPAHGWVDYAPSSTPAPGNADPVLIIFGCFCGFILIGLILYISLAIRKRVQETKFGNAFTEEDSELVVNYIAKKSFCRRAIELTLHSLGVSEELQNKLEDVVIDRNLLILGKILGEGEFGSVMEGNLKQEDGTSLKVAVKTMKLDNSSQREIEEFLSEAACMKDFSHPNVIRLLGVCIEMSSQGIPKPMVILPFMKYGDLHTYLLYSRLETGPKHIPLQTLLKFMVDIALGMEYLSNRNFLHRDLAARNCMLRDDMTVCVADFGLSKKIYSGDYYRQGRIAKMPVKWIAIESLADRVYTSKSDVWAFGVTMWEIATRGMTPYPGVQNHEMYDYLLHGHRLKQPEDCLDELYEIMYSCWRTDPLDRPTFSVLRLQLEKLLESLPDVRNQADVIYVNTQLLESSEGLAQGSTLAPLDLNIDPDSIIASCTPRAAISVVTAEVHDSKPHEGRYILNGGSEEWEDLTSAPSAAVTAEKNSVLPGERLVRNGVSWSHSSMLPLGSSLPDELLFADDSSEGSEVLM
How it was run: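 293A cells transiently transfected with human MERTK DNA, replated after 24 h, then treated 1 h with 8-point compound dilutions in serum-free medium (0.3% DMSO). Lysates assayed by phospho-Mer sandwich ELISA against phospho-Mer standard; DMSO = 100%, reference inhibitor = 0% activity; IC50 by 4-parameter logistic fit.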

[2] = molecular target: Met (Homo sapiens, UniProt P08581); assay: Met autophosphorylation ELISA in PC-3 cells; type: cell-based; design: endogenous in cells; host or cells: PC-3 prostate cancer cells (ATCC #CRL-1435); conditions: Table 3 Cellular Activities, HGF-stimulated, phospho-Met ELISA, read-out: c-Met IC50
How it was run: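 Serum-starved (3 h) PC-3 cells pre-incubated 1 h with compound (8-point dose curve, 0.3% DMSO), then stimulated with 100 ng/mL recombinant human HGF for 10 min. Lysate phospho-Met (panTyr) measured by sandwich ELISA; IC50 from 4-parameter logistic fit, normalised to DMSO (100%) and reference-inhibitor (0%) controls.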

Sequence of Met (P08581 25-1390): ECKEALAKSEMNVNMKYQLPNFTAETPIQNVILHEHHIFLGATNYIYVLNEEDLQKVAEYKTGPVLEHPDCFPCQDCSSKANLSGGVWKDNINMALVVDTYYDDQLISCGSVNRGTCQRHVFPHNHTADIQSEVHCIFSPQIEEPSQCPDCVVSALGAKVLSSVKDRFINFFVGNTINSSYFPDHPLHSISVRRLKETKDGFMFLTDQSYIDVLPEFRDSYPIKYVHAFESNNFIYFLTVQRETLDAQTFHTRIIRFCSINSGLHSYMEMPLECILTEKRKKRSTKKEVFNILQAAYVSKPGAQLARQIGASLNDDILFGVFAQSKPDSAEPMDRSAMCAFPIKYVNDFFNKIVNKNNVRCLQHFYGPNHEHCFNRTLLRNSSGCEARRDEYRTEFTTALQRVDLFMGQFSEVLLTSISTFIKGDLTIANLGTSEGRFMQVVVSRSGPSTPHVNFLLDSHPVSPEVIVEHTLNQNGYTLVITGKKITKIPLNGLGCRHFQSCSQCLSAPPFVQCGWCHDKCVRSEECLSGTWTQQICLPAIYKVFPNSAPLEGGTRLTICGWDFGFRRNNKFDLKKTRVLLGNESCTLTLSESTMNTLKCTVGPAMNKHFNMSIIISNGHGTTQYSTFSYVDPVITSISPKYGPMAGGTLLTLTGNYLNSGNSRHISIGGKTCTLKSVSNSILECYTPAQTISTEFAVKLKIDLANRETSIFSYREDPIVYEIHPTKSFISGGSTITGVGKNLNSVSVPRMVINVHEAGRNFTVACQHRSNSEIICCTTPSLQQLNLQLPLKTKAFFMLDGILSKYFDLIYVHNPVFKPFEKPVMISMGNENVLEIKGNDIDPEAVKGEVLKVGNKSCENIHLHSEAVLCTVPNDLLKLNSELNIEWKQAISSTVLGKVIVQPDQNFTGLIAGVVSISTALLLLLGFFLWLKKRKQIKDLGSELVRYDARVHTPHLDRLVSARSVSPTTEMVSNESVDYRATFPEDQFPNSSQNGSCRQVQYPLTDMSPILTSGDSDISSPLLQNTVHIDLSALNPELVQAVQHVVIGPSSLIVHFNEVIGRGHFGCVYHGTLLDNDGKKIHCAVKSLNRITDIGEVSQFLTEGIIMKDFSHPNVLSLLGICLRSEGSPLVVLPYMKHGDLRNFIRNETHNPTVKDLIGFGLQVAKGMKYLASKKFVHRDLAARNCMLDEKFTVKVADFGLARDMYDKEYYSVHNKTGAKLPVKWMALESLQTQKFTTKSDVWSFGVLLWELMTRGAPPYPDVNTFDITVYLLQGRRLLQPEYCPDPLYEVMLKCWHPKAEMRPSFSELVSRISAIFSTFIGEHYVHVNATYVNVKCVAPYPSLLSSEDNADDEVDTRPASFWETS

- IC50 [1]: ≤ 100 nM
- IC50 [2]: ≤ 100 nM
Structure (SMILES): C=Cc1ccc(-c2c(C)ncc(C(=O)Nc3ccc(Oc4ccnc5cc(OC)c(OC)nc45)c(F)c3)c2O)o1 [Compound 151, N-[4-[(6,7-Dimethoxy-1,5-naphthyridin-4-yl)oxy]-3-fluorophenyl]-5-(5-ethenylfuran-2-yl)-4-hydroxy-6-methylpyridine-3-carboxamide]

Source: US20230151003A1, “COMPOUNDS AND METHODS OF USE” (Exelixis, Inc., priority 2020, published 2023)
